Structures can show the parent of a compound that is named as a salt.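 Step 1: Grow cells in 96-well plates. Step 2: Expose to compound for 48 hours at 5 concentrations. Step 3: Interpolate endpoints linearly; if unreached, use highest concentration. Here, GI50 denotes the concentration required for 50% inhibition of growth.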 Activity calls are given as the source filed them. Cut-off read from the data, not from the text of the source: active = GI50 up to about 1.1 µM and inactive = higher.
Experiments:
Assay in all cases: NCI-60 cell line screen, 48 h
EKVX = tested on: EKVX
UACC-257 = tested on: UACC-257
OVCAR-4 = tested on: OVCAR-4
SK-MEL-28 = tested on: SK-MEL-28
RXF 393 = tested on: RXF 393
U-251 = tested on: U-251
SR = tested on: SR
NCI/ADR-RES = tested on: NCI/ADR-RES
T47D = tested on: T47D
MCF7 = tested on: MCF7
MOLT-4 = tested on: MOLT-4
LOX IMVI = tested on: LOX IMVI
SN12C = tested on: SN12C
K562 = tested on: K562
ACHN = tested on: ACHN
MDA-MB-231 = tested on: MDA-MB-231
DU-145 = tested on: DU-145
OVCAR-8 = tested on: OVCAR-8
SK-OV-3 = tested on: SK-OV-3
SNB-75 = tested on: SNB-75

SMILES | GI50 (EKVX) | GI50 (UACC-257) | GI50 (OVCAR-4) | GI50 (SK-MEL-28) | GI50 (RXF 393) | GI50 (U-251) | GI50 (SR) | GI50 (NCI/ADR-RES) | GI50 (T47D) | GI50 (MCF7) | GI50 (MOLT-4) | GI50 (LOX IMVI) | GI50 (SN12C) | GI50 (K562) | GI50 (ACHN) | GI50 (MDA-MB-231) | GI50 (DU-145) | GI50 (OVCAR-8) | GI50 (SK-OV-3) | GI50 (SNB-75)
N#CC(C#N)SCc1ccccc1 | > 96.2 µM (inactive) | 23.1 µM (inactive) | 23.7 µM (inactive) | 36.2 µM (inactive) | 26.8 µM (inactive) | 19.5 µM (inactive) | 1.11 µM (active) | 6.64 µM (inactive) | 18.5 µM (inactive) | 4.55 µM (inactive) | 1.67 µM (inactive) | 5.11 µM (inactive) | 8.3 µM (inactive) | 1.12 µM (inactive) | 40.4 µM (inactive) | 2.66 µM (inactive) | 22.9 µM (inactive) | 15 µM (inactive) | 24.4 µM (inactive) | 38 µM (inactive)
NC1CC(=O)c2c(Cl)sc(Cl)c21 (stereo not given) | 2 µM (inactive) | 3.16 µM (inactive) | 6.44 µM (inactive) | 1.73 µM (inactive) | 1.45 µM (inactive) | 3.77 µM (inactive) | 0.493 µM (active) | 15 µM (inactive) | 1.74 µM (inactive) | 1.82 µM (inactive) | 2.18 µM (inactive) | 1.51 µM (inactive) | 2.05 µM (inactive) | 2.03 µM (inactive) | 2.33 µM (inactive) | 2.19 µM (inactive) | 5.55 µM (inactive) | 5.46 µM (inactive) | 14.4 µM (inactive) | 14.1 µM (inactive)
CO/C(=C/C(=O)C(Cl)(Cl)Cl)CC/C(=C\C(=O)C(Cl)(Cl)Cl)OC | 20.4 µM (inactive) | 19.2 µM (inactive) | 19.1 µM (inactive) | 30.1 µM (inactive) | 17.5 µM (inactive) | 22.8 µM (inactive) | 18.6 µM (inactive) | 29.5 µM (inactive) | 25.4 µM (inactive) | 24.2 µM (inactive) | 21.4 µM (inactive) | 19.6 µM (inactive) | 23.2 µM (inactive) | 25.8 µM (inactive) | 24.5 µM (inactive) | 42.2 µM (inactive) | 25.1 µM (inactive) | 21.9 µM (inactive) | 30.4 µM (inactive) | 40.6 µM (inactive)
Cc1ccc([S+]([O-])c2sccc2C=O)cc1 (stereo not given) | 26.2 µM (inactive) | 53.5 µM (inactive) | 29 µM (inactive) | 29.2 µM (inactive) | 56.9 µM (inactive) | 18.9 µM (inactive) | 31.8 µM (inactive) | 26.5 µM (inactive) | 43.7 µM (inactive) | 21.4 µM (inactive) | 21.3 µM (inactive) | 14.4 µM (inactive) | 22.9 µM (inactive) | 48.6 µM (inactive) | 63 µM (inactive) | 26.4 µM (inactive) | 54.3 µM (inactive) | 23.1 µM (inactive) | > 100 µM (inactive) | 33.9 µM (inactive)
COc1c(/C=C/C=O)cc2c(c1OC)OCO2 | 55.3 µM (inactive) | 48.1 µM (inactive) | 16.6 µM (inactive) | > 100 µM (inactive) | > 100 µM (inactive) | 23.2 µM (inactive) | 12.9 µM (inactive) | 33.3 µM (inactive) | 23.3 µM (inactive) | 28 µM (inactive) | 20.5 µM (inactive) | 24.5 µM (inactive) | 24.2 µM (inactive) | – | 27.3 µM (inactive) | 31.6 µM (inactive) | 28.4 µM (inactive) | 33.6 µM (inactive) | 60.8 µM (inactive) | > 100 µM (inactive)
COC(=O)C[C@H](COCc1ccccc1)NC(=O)C[C@H](COCc1ccccc1)NC(=O)C[C@H](COCc1ccccc1)NC(=O)OC(C)(C)C | 25.8 µM (inactive) | – | 3.97 µM (inactive) | 73.1 µM (inactive) | 20.9 µM (inactive) | 94 µM (inactive) | 35.3 µM (inactive) | > 100 µM (inactive) | 24.7 µM (inactive) | 11.8 µM (inactive) | > 100 µM (inactive) | 58.7 µM (inactive) | 41.4 µM (inactive) | > 100 µM (inactive) | 80.9 µM (inactive) | 81.8 µM (inactive) | 23.3 µM (inactive) | 23.8 µM (inactive) | 60.8 µM (inactive) | 13.1 µM (inactive)
Cc1cc(NS(=O)(=O)c2ccc(Nc3c4ccccc4nc4ccc(C(=O)Nc5ccc(S(N)(=O)=O)cc5)cc34)cc2)no1 | > 100 µM (inactive) | > 100 µM (inactive) | > 100 µM (inactive) | > 100 µM (inactive) | > 100 µM (inactive) | 57.4 µM (inactive) | > 100 µM (inactive) | > 100 µM (inactive) | 84.3 µM (inactive) | > 100 µM (inactive) | > 100 µM (inactive) | > 100 µM (inactive) | > 100 µM (inactive) | > 100 µM (inactive) | > 100 µM (inactive) | > 100 µM (inactive) | > 100 µM (inactive) | > 100 µM (inactive) | > 100 µM (inactive) | > 100 µM (inactive)
COc1cc(/C=C2\C[C@H]3[C@@H]4CC=C5C[C@@H](OC(C)=O)CC[C@]5(C)[C@H]4CC[C@]3(C)\C2=N\O)cc(OC)c1OC | 4.71 µM (inactive) | 5.74 µM (inactive) | 3.37 µM (inactive) | 5.58 µM (inactive) | 0.942 µM (active) | 7.41 µM (inactive) | 3.58 µM (inactive) | 3.78 µM (inactive) | 1.64 µM (inactive) | 4.2 µM (inactive) | 2.36 µM (inactive) | 4.32 µM (inactive) | 6.37 µM (inactive) | 4.27 µM (inactive) | 3.75 µM (inactive) | 15.1 µM (inactive) | 4.42 µM (inactive) | 4.29 µM (inactive) | 25.5 µM (inactive) | 2.5 µM (inactive)
CC(C)=CCc1c2c(c(O)c3c(=O)c4c(oc13)-c1ccc(O)cc1OC4C=C(C)C)C=CC(C)(C)O2 (stereo not given) | 14.9 µM (inactive) | 15.4 µM (inactive) | 11.6 µM (inactive) | 14.6 µM (inactive) | 7.29 µM (inactive) | 12.2 µM (inactive) | 5.33 µM (inactive) | 16.9 µM (inactive) | 8.79 µM (inactive) | 13.5 µM (inactive) | – | 8.61 µM (inactive) | 6.35 µM (inactive) | 8.65 µM (inactive) | 11.8 µM (inactive) | 14.2 µM (inactive) | 14 µM (inactive) | 13.3 µM (inactive) | 18.5 µM (inactive) | 11.9 µM (inactive)
N=c1oc2ccc(Cl)cc2cc1C(=O)NC1CCCCC1 | – | > 100 µM (inactive) | > 100 µM (inactive) | 98.6 µM (inactive) | > 100 µM (inactive) | > 100 µM (inactive) | 51.5 µM (inactive) | 81.5 µM (inactive) | 66.2 µM (inactive) | 58.6 µM (inactive) | 44.2 µM (inactive) | 53 µM (inactive) | > 100 µM (inactive) | 66.7 µM (inactive) | > 100 µM (inactive) | > 100 µM (inactive) | 73.8 µM (inactive) | > 100 µM (inactive) | > 100 µM (inactive) | 84.5 µM (inactive)
Cc1ccc(S(=O)(=O)NC(CO)C(=O)O)cc1 (stereo not given) | > 100 µM (inactive) | > 100 µM (inactive) | > 100 µM (inactive) | > 100 µM (inactive) | > 100 µM (inactive) | > 100 µM (inactive) | > 100 µM (inactive) | > 100 µM (inactive) | > 100 µM (inactive) | > 100 µM (inactive) | > 100 µM (inactive) | > 100 µM (inactive) | > 100 µM (inactive) | > 100 µM (inactive) | > 100 µM (inactive) | > 100 µM (inactive) | > 100 µM (inactive) | > 100 µM (inactive) | > 100 µM (inactive) | > 100 µM (inactive)
O=C(NNC(=O)c1ccncc1)c1ccncc1 | > 100 µM (inactive) | > 100 µM (inactive) | > 100 µM (inactive) | > 100 µM (inactive) | > 100 µM (inactive) | > 100 µM (inactive) | > 100 µM (inactive) | > 100 µM (inactive) | > 100 µM (inactive) | > 100 µM (inactive) | > 100 µM (inactive) | > 100 µM (inactive) | > 100 µM (inactive) | > 100 µM (inactive) | > 100 µM (inactive) | > 100 µM (inactive) | > 100 µM (inactive) | > 100 µM (inactive) | > 100 µM (inactive) | > 100 µM (inactive)
COc1cc(OCCN(C)C)c2[nH]c(C(=O)N3CC(CCl)c4ccc(N)cc43)cc2c1 (stereo not given) | 0.108 µM (active) | 0.0546 µM (active) | 0.029 µM (active) | 0.0628 µM (active) | 0.0204 µM (active) | 0.0432 µM (active) | < 0.01 µM (active) | 0.0376 µM (active) | 0.0312 µM (active) | 0.0139 µM (active) | < 0.01 µM (active) | 0.021 µM (active) | 0.0597 µM (active) | 0.0239 µM (active) | 0.0178 µM (active) | 0.0912 µM (active) | 0.0142 µM (active) | 0.0432 µM (active) | 1.04 µM (active) | 0.0676 µM (active)
CNNCc1ccc(C(=O)NC(C)C)cc1 [PROCARBAZINE HYDROCHLORIDE] | > 500 µM (inactive) | 450 µM (inactive) | > 500 µM (inactive) | > 500 µM (inactive) | > 423 µM (inactive) | – | > 375 µM (inactive) | > 500 µM (inactive) | > 500 µM (inactive) | > 486 µM (inactive) | 426 µM (inactive) | > 486 µM (inactive) | > 500 µM (inactive) | 410 µM (inactive) | > 500 µM (inactive) | > 500 µM (inactive) | > 500 µM (inactive) | > 500 µM (inactive) | > 493 µM (inactive) | 435 µM (inactive)
